Results as given in patent publication US9199965B2, “Benzoimidazole derivatives and pharmaceutical composition comprising the same” (Daewoong Co., Ltd., priority 2005, dated 2015).
pIC50: −log10 of the molar value.

Legend:
rat TRPV1 = target: T1, rat TRPV1 (Rattus norvegicus, UniProt O35433); assay: Assay for inhibitory activity against VR1 patch clamp activity (capsaicin current, inside-out patch); assay type: cell-based; conditions: 1 μM compound with 10 μM capsaicin; rat TRPV1-transfected HEK293, inside-out patch; relative to capsaicin current before compound
T1 construct: expressed in transfected cells; host or cells: HEK293
Procedure: Each of the compounds synthesized in the examples were dissolved in dimethyl sulfoxide (DMSO) at a concentration of 10 mM. For use in the assay for inhibitory activity against patch clamp activity, the solutions were diluted to a concentration of 1 μM with the same physiological saline as in the pipette solution of Table 1, below.
2) Assay for Inhibitory Activity Against VR1 Patch Clamp Activity
In this experiment, changes in VR1 activity were recorded in current using an electrophysiological technique.
For use in this experiment, a rat TRPV1 cDNA was transfected into a subcultured HEK293 strain with the aid of lipofectamin.
The rat TRPV1 gene-transfected HEK293 cells were detached from the cell culture dishes with trypsin and distributed on a patch clamp recording chamber.
A cover glass slip on the bottom of the patch clamp recording chamber was treated for 15 min or longer with a […] poly-L-lysine solution so that the HEK cells would readily adhere thereto. Cellular membranes were ruptured at room temperature (˜25° C.) from randomly selected HEK cells to perform an inside-out patch clamp technique. 10 μM of capsaicin was fed into the chamber (cytoplasmic side) to activate a capsaicin current through the VR1. When the capsaicin current reached a stable stage, each compound was added along with 10 μM of capsaicin to record the inhibitory activity of the compounds with regard to the current. The inhibition was expressed as percentages.
Detected current was amplified using a Digidata 1200B A/D converter and an Axopatch 1D amplifier (Axon instruments Inc.), and the data were recorded and analyzed with the aid of a computer. The inhibitory activity of each compound was expressed as a percentage relative to the capsaicin current immediately before the administration of each compound.

human vanilloid-1 (hVR1) = target: T2, human vanilloid-1 (hVR1) (Homo sapiens, UniProt Q8NER1); assay: Calcium influx of vanilloid receptor in hVR1-HEK293 cells (capsaicin-induced, Fluo-3/AM); assay type: cell-based; conditions: 1 μM capsaicin-induced intracellular calcium influx, read-out: Inhibitory Activity IC50
T2 construct: expressed in transfected cells; host or cells: HEK293 Tet-on (hVR1-HEK293), doxycycline-induced
Procedure: Experiments for calcium influx were performed to measure the activity of the compounds as antagonists.
The cell strain hVR1-HEK293 is the human embryonic kidney (HEK) 293 Tet-on cell transfected with a human vanilloid-1 gene (pTRE2hyg-hVR1, 7.8 kb), which is capable of controlling the expression of VR1 according to the administration of deoxycycline, a tetracycline derivative analog. In a medium supplemented with deoxycycline two days before calcium influx experiments, the cell strain was cultured to induce the expression of VR1. After being grown to a confluency of about 80% in T75 flasks, hVR1-HEK293 was detached from the flask using trypsin. Cells harvested by centrifugation were suspended in a medium supplemented with 1 μg/mL of deoxycycline and diluted to a density of 2-4×10^5 cells/mL, after which a 100 μL aliquot of the cell suspension was added to each well of 96 well black plates. Before the measurement of calcium influx, the cells were incubated for two days at 37° C. in a 5% CO2 incubator.
For use in calcium influx experiments, each compound was dissolved in dimethyl sulfoxide (DMSO).
To measure an intracellular calcium influx, cells were incubated at 37° C. for 90 min in a medium containing the calcium indicator Fluo-3/AM so as to allow the fluorescent dye to penetrate into the cells. Then, the cells were washed three times with D-PBS (Dulbecco's phosphate buffered saline) containing 10 mM HEPES to remove the fluorescent dye which remained outside. 193 μL aliquot of D-PBS was added to each well, followed by the addition of various concentrations of compounds thereto. In order to measure the antagonistic activity of the compounds, calcium influx was induced by treatment with 1 μM capsaicin. The inhibitory effect of each compound on 1 μM capsaicin-induced intracellular calcium influx according to compound concentration was measured using a fluorescent analyzer and the data thus obtained were analyzed on the basis of the Hill's equation.

[1] = tested on: ICR male mice (PBQ-induced writhing); assay: PBQ-induced writhing test for analgesic effect; assay type: in vivo; conditions: Mus musculus, 1 h, 20 mg/kg oral, one hour before intraabdominal PBQ (0.02%), read-out: % Inhibition (decrease in number of writhes compared to control)
Procedure: A PBQ-induced writhing test was conducted in mice to assay for the analgesic effect of the novel compounds. Five-week-old ICR male mice were treated with PBQ (phenyl-p-quinone, 0.02%). A suspension of 20 mg of test material in 10 mL of physiological saline was used per kg of weight of mice. Test materials in combination with a carrier were orally administered one hour before the intraabdominal injection of PBQ in a dose of 10 mL per kg weight. From 5 min after the injection, individual mice in each test group were measured for numbers of writhes at regular intervals of 10 min. Analgesic effects of test compounds were expressed as percentages of the decrease in number of writhes compared to a control. [% Inhibition=(Control administered with carrier alone−Group administered with test material)/control administered with carrier alone×100]

T2 sequence (Q8NER1 whole entry): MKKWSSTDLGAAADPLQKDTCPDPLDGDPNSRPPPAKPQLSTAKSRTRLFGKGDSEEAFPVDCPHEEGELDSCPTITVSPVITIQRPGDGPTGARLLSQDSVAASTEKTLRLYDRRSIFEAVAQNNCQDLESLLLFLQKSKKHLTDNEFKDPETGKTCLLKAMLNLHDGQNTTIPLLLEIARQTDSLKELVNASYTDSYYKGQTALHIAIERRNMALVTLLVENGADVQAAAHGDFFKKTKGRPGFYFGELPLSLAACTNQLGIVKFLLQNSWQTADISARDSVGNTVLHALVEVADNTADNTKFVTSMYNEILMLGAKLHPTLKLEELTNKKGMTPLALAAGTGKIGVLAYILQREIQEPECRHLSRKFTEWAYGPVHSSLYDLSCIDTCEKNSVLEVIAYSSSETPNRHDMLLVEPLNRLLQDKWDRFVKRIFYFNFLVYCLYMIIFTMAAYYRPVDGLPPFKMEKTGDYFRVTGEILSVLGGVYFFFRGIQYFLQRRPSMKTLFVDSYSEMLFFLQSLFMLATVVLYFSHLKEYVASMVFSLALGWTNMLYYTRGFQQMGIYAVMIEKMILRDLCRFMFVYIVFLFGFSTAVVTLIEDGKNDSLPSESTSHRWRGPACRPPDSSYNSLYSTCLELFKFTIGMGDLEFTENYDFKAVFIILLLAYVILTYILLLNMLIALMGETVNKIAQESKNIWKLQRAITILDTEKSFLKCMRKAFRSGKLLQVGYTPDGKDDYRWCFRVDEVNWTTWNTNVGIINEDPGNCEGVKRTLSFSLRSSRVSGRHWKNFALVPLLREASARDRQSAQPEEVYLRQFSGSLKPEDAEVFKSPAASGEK
T1 sequence (O35433 whole entry): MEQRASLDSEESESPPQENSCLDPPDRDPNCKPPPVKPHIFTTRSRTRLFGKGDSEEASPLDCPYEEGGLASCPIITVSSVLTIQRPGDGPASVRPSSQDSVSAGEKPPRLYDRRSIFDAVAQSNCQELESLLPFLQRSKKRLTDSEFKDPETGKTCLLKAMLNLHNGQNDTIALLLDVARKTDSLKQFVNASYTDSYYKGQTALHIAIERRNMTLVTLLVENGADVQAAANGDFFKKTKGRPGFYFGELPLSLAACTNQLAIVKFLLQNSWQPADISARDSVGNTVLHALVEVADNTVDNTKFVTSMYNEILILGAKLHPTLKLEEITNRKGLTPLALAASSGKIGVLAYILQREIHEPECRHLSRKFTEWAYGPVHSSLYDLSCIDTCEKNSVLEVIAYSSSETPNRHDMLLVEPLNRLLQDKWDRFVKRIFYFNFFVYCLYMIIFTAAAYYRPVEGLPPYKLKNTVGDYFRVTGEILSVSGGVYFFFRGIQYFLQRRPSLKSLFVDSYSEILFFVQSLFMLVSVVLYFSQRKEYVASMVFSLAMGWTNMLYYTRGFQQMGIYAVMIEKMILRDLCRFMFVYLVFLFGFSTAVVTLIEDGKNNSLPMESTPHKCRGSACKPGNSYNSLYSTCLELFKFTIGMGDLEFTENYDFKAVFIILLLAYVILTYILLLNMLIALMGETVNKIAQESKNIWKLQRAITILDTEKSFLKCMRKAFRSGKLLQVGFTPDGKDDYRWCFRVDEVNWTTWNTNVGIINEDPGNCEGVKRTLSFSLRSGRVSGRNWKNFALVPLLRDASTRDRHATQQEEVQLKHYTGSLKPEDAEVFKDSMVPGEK

| Compound | inhibition at 1 µM (rat TRPV1) | pIC50 (human vanilloid-1 (hVR1)) | inhibition in vivo at 20 mg/kg [1] |
| --- | --- | --- | --- |
| FC(F)(F)c1cc(Cl)c2nc(-c3ccc(-c4ncccc4Cl)cc3)[nH]c2c1 [Compound 6, 4-chloro-2-[4-(3-chloropyridin-2-yl)phenyl]-6-trifluoromethyl-1H-benzoimidazole] | 94% | 7.96 | 33% |
| FC(F)(F)c1cc(Cl)c2nc(-c3ccc(-c4ncccc4Cl)cn3)[nH]c2c1 [Compound 138, 3-chloro-6′-(4-chloro-6-trifluoromethyl-1H-benzoimidazole-2-yl)-[2,3′]bipyridine] | 73% | 7.80 | 22% |
| FC(F)(F)c1ccc2nc(-c3ccc(-c4ncccc4C(F)(F)F)cn3)[nH]c2c1 [Compound 158, 3-trifluoromethyl-6′-(6-trifluoromethyl-1H-benzoimidazole-2-yl)-[2,3′]bipyridine] | 69% | 7.85 | 53% |
| FC(F)(F)c1ccc2nc(-c3ccc(-c4ncccc4Cl)cc3)[nH]c2c1 [Compound 1, 2-[4-(3-Chloropyridin-2-yl)-phenyl]-6-trifluoromethyl-1H-benzoimidazole] | 100% | 6.89 | 33% |
| FC(F)(F)c1cc(C(F)(F)F)c2nc(-c3ccc(-c4ncccc4C(F)(F)F)cc3)[nH]c2c1 [Compound 33, 4,6-bistrifluoromethyl-2-[4-(3-trifluoromethylpyridin-2-yl)phenyl]-1H-benzoimidazole] | 10% | 8.00 | 31% |
| FC(F)(F)c1cc(C(F)(F)F)c2nc(-c3ccc(-c4ncccc4C(F)(F)F)cn3)[nH]c2c1 [Compound 162, 6′-(4,6-bistrifluoromethyl-1H-benzoimidazole-2-yl)-3-trifluoromethyl-[2,3′]bipyridine] | 99% | 7.85 | 28% |
| CC(C)(C)c1ccc2nc(-c3ccc(-c4ncccc4Cl)cc3F)[nH]c2c1 [Compound 67, 6-tert-butyl-2-[4-(3-chloropyridin-2-yl)-2-fluorophenyl]-1H-benzoimidazole] | 80% | 6.91 | 23% |
| FC(F)(F)c1cccnc1-c1ccc(-c2nc3cc(Cl)c(Cl)cc3[nH]2)nc1 [Compound 163, 6′-(5,6-dichloro-1H-benzoimidazole-2-yl)-3-trifluoromethyl-[2,3′]bipyridine] |  | 7.82 | 41% |
| CC(C)(C)c1ccc2nc(-c3ccc(-c4ncccc4Cl)cc3)[nH]c2c1 [Compound 3, 6-tert-butyl-2-[4-(3-chloropyridin-2-yl)phenyl]-1H-benzoimidazole] | 100% | 7.21 | 58% |
| FC(F)(F)c1cnc2nc(-c3ccc(-c4ncccc4Cl)c4ccccc34)[nH]c2c1 [Compound 107, 2-[4-(3-chloropyridin-2-yl)naphthalen-1-yl]-6-trifluoromethyl-1H-imidazo[4,5-b]pyridine] | 97% | 7.77 | 46% |
| FC(F)(F)c1cc(Br)c2nc(-c3ccc(-c4ncccc4C(F)(F)F)cc3)[nH]c2c1 [Compound 36, 4-bromo-6-(trifluoromethyl)-2-(4-(3-(trifluoromethyl)pyridin-2-yl)phenyl)-1H-benzoimidazole] |  | 7.03 | 70% |
| FC(F)(F)c1cccnc1-c1ccc(-c2nc3ccc(Br)cc3[nH]2)cc1 [Compound 37, 6-bromo-2-(4-(3-(trifluoromethyl)pyridin-2-yl)phenyl)-1H-benzoimidazole] |  | 7.12 | 50% |
| CS(=O)(=O)Nc1ccc(-c2ccc(-c3nc4c(C(F)(F)F)cc(C(F)(F)F)cc4[nH]3)cc2)cc1F [Compound 29, N-[4′-(4,6-bistrifluoromethyl-1H-benzoimidazole-2-yl)-3-fluorobiphenyl-4-yl]methanesulfonamide] | 50% | 8.40 | 41% |
| FC(F)(F)c1cc(Br)c2nc(-c3ccc(-c4ncccc4C(F)(F)F)cn3)[nH]c2c1 [Compound 164, 4-bromo-6-(trifluoromethyl)-2-(5-(3-(trifluoromethyl)pyridin-2-yl)pyridin-2-yl)-1H-benzoimidazole] |  | 8.05 | 53% |
| FC(F)(F)c1cc(Cl)c2nc(-c3ccc(-c4ncccc4C(F)(F)F)cc3)[nH]c2c1 [Compound 31, 4-chloro-6-trifluoromethyl-2-[4-(3-trifluoromethylpyridin-2-yl)phenyl]-1H-benzoimidazole] | 66% | 8.10 | 35% |
| FC(F)(F)c1cccnc1-c1ccc(-c2nc3ccc(Br)cc3[nH]2)nc1 [Compound 165, 6-bromo-2-(5-(3-(trifluoromethyl)pyridin-2-yl)pyridin-2-yl)-1H-benzoimidazole] |  | 7.55 | 60% |
| CC(C)(C)c1ccc2nc(-c3ccc(-c4ncccc4Cl)c4ccccc34)[nH]c2c1 [Compound 105, 6-tert-butyl-2-[4-(3-chloropyridin-2-yl)naphthalen-1-yl]-1H-benzoimidazole] | 78% | 7.62 | 50% |
| Clc1cc2nc(-c3ccc(-c4ncccc4Cl)cc3)[nH]c2cc1Cl [Compound 12, 2-[4-(3-chloropyridin-2-yl)phenyl]-5,6-dichloro-1H-benzoimidazole] |  | 7.15 | 35% |
| FC(F)(F)c1cc(C(F)(F)F)c2nc(-c3ccc(-c4ncccc4Cl)cn3)[nH]c2c1 [Compound 139, 6′-(4,6-bistrifluoromethyl-1H-benzoimidazole-2-yl)-3-chloro-[2,3′]bipyridine] | 89% | 7.42 | 26% |
